Read-outs that look alike come from different tables or passages of the source.
Columns and labels:
[1] = tested on: Key Broadleaf Weed and Crop Species; assay: Post-emergent Test II herbicidal activity (Table 5); type: in vivo; details: post-emergence, 336 h, 14 days after application; for pest or weed control at 70 g/ha: application rate 70 g ai/ha; for pest or weed control at 140 g/ha: application rate 140 g ai/ha
Procedure, shortened: (§1)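 Test species were raised 7–21 d under greenhouse conditions until reaching the first or second true leaf, sprayed with formulated compound at 187 L/ha, and kept subirrigated to avoid wash-off. Fourteen days later, damage was rated visually on a 0–100% scale against untreated plants.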

[2] = tested on: Key Grass and Sedge Weeds as well as Grass Crops; assay: Post-emergent Test II herbicidal activity (Table 6); type: in vivo; details: post-emergence, 336 h; for pest or weed control at 70 g/ha: 70 g ai/ha; for pest or weed control at 140 g/ha: 140 g ai/ha
Procedure, shortened: as §1

[3] = ABUTH: velvetleaf (Abutilon theophrasti), read-out: Visual Growth Reduction (%) 14 Days After Application, ABUTH
[4] = AMARE: redroot pigweed (Amaranthus retroflexus), read-out: Visual Growth Reduction (%) 14 Days After Application, AMARE
[5] = BRSNN: oilseed-rape, canola (Brassica napus), read-out: Visual Growth Reduction (%) 14 Days After Application, BRSNN
[6] = CHEAL: lambsquarters (Chenopodium album), read-out: Visual Growth Reduction (%) 14 Days After Application, CHEAL
[7] = EPHHL: wild poinsettia (Euphorbia heterophylla), read-out: Visual Growth Reduction (%) 14 Days After Application, EPHHL
[8] = HELAN: sunflower (Helianthus annuus), read-out: Visual Growth Reduction (%) 14 Days After Application, HELAN
[9] = VIOTR: wild pansy (Viola tricolor), read-out: Visual Growth Reduction (%) 14 Days After Application, VIOTR
[10] = CYPES: yellow nutsedge (Cyperus esculentus), read-out: Visual Growth Reduction (%) 14 Days After Application, CYPES
[11] = DIGSA: crabgrass (Digitaria sanguinalis), read-out: Visual Growth Reduction (%) 14 Days After Application, DIGSA
[12] = ECHCG: barnyardgrass (Echinochloa crus-galli), read-out: Visual Growth Reduction (%) 14 Days After Application, ECHCG
[13] = ORYSA: rice (Oryza sativa), crop, read-out: Visual Growth Reduction (%) 14 Days After Application, ORYSA
[14] = SETFA: giant foxtail (Setaria faberi), read-out: Visual Growth Reduction (%) 14 Days After Application, SETFA
[15] = SORVU: grain sorghum (Sorghum vulgare), read-out: Visual Growth Reduction (%) 14 Days After Application, SORVU
[16] = TRZSS (wheat, Triticum aestivum), crop, read-out: Visual Growth Reduction (%) 14 Days After Application, TRZSS
[17] = ZEAMX: maize, corn (Zea mays), crop, read-out: Visual Growth Reduction (%) 14 Days After Application, ZEAMX

COC(=O)c1nc(-c2ccc(Br)c(F)c2F)cc(N)c1Cl [Compound 114, methyl 4-amino-6-(4-bromo-2,3-difluorophenyl)-3-chloropicolinate]
75 to 84%: pest or weed control at 140 g/ha [2, 14]
45 to 59%: pest or weed control at 140 g/ha [2, 16]
85 to 94%: pest or weed control at 70 g/ha [1, 5] | pest or weed control at 70 g/ha [2, 17] | pest or weed control at 140 g/ha [2, 17]
0 to 29%: pest or weed control at 70 g/ha [2, 13] | pest or weed control at 140 g/ha [2, 13]
30 to 44%: pest or weed control at 70 g/ha [2, 16]
95 to 100%: pest or weed control at 70 g/ha [1, 3] | pest or weed control at 140 g/ha [1, 3] | pest or weed control at 70 g/ha [1, 4] | pest or weed control at 140 g/ha [1, 4] | pest or weed control at 140 g/ha [1, 5] | pest or weed control at 70 g/ha [1, 6] | pest or weed control at 140 g/ha [1, 6] | pest or weed control at 70 g/ha [1, 7] | pest or weed control at 140 g/ha [1, 7] | pest or weed control at 70 g/ha [1, 8] | pest or weed control at 140 g/ha [1, 8] | pest or weed control at 70 g/ha [1, 9] | pest or weed control at 140 g/ha [1, 9] | pest or weed control at 70 g/ha [2, 10] | pest or weed control at 140 g/ha [2, 10] | pest or weed control at 70 g/ha [2, 12] | pest or weed control at 140 g/ha [2, 12] | pest or weed control at 70 g/ha [2, 15] | pest or weed control at 140 g/ha [2, 15]
60 to 74%: pest or weed control at 70 g/ha [2, 11] | pest or weed control at 140 g/ha [2, 11] | pest or weed control at 70 g/ha [2, 14]
